Data taken from US20240285543A1, “NANOPARTICLE-MEDIATED ENHANCEMENT OF IMMUNOTHERAPY TO PROMOTE FERROPTOSIS-INDUCED CYTOTOXICITY AND ANTITUMOR IMMUNE RESPONSES” (Memorial Sloan-Kettering Cancer Center, priority 2021, published 2024).
pIC50: −log10 of the molar value. Each block holds one molecule with its values, some of them ahead of it.

Experiments:
PSMA [1] = target: T1, PSMA (Homo sapiens, UniProt Q04609)
Excerpt: Table printed on a drawing sheet, FIG. 25
(§1) Head of the field: IC50 (M)
The patent's description of the figure: FIG. 25 show PSMA-targeting peptide-linkers, according to embodiments of the present disclosure.
Where the first naming reader finds the target: head: PSMA-Targeting Peptide-Linker Sequences
Target sequence in this assay (Q04609 whole entry, looked up): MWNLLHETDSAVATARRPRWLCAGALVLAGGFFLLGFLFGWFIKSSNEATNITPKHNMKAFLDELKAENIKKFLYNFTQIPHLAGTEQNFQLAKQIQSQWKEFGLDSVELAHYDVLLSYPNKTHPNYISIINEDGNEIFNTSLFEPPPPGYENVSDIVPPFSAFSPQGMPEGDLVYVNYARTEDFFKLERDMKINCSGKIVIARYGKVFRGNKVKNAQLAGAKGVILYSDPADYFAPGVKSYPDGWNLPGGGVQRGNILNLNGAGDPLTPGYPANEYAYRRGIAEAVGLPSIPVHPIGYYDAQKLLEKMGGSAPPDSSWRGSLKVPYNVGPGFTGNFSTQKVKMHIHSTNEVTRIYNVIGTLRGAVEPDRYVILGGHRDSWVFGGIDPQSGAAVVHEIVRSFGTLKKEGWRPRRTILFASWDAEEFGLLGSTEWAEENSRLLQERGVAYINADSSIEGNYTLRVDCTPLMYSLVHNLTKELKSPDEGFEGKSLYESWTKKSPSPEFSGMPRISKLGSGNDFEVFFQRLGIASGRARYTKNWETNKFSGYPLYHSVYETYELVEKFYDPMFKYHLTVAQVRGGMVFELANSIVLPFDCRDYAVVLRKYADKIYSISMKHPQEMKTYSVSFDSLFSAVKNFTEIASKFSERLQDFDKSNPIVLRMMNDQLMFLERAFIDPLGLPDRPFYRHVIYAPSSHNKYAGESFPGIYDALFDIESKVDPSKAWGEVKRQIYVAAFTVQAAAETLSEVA

PSMA [2] = target: T1, PSMA; design: compiled for 40 patients treated with ^225Ac-PSMA-617; host or cells: patients (mCRPC); details: cited from earlier work; for clinical response: mCRPC patients
Target sequence in this assay (Q04609 whole entry): as the sequence (Q04609 whole entry, looked up) above

B16-F10 tumors = test: B16-F10 melanoma tumor growth inhibition and TME analysis; assay type: in vivo, mice
Excerpt: FIGS. 15A-15C show C′ dots inhibit melanoma tumor growth via ferroptotic induction and pro-inflammatory responses. […] Data represents analyses of n=4 mice per group, mean±s.e.m. *p<0.05 (non-parametric 2-way ANOVA).
Data represent mean±s.e.m. **** saline-PD1: P=0.0001; **** saline-alpha-MSH: P=0.0001; **** saline-(anti-PD1+alpha-MSH): P<0.0001; **PD1-(anti-PD1+alpha-MSH): P=0.0017; **alpha-MSH-(anti-PD1+alpha-MSH): P=0.0017.
The present example describes a statistically significant and marked drop in tumor volume (red curve) to nearly 65% of control values (blue curve) following a multiple, high-dose (60 μM) regimen of i.v.-injected αMSH-PEG-C′ dots in B16-F10 mice when tumors reached […]. […] To evaluate the extent of immune cell infiltration, IHC was performed to assess for Iba1, CD3, CD4, and CD8 expression, with results graphically depicted in FIG. 15C. […]
Particles have been either injected as multiple doses (n=3) alone or concomitantly with either the first three doses (“early”, on days 7, 10, and 13) or the final three doses (“late”, on days 16, 19, and 22) of anti-PD-1 (250 μg/mouse), anti-CTLA4 (100 μg/mouse), or anti-PD-1+anti-CTLA4 antibody regimens (see FIG. 12). […] It can then be determined whether the order of administration of these agents is important in terms of modulating overall treatment responses.

MC1-R = test: IC50 (M)
Excerpt: Table printed on a drawing sheet, FIG. 13F
as §1
The patent's description of the figure: FIGS. 13A-13F show characterization of a lead alpha-MSH peptide-linker conjugate. Structural schematics of representative alpha-MSH peptides. […] FIG. 13B, FIG. 13C each show second generation peptides with reduced hydrophobicity containing PEG2 and one Ahx spacer: (FIG. 13B) PEG2-Ahx-d-Lys-alpha-MSH (yellow closed circle in FIG. 13E); and (FIG. 13C) PEG2-d-Lys-Ahx-alpha-MSH (green triangle in FIG. 13E). […] FIG. 13E and FIG. 13F show IC50 determination of MC1-R targeting Re-cyclized and lactam-cyclized peptides.
First copying reader's note: IC50 values belong to the competitive binding curves of FIG. 13E on the same sheet.
Where the first naming reader finds the target: head: MC1-R-Targeting Peptide Linker Sequences

Molecule: O=C(O)CC[C@H](NC(=O)N[C@@H](CCCCNC(=O)[C@H](Cc1ccc2ccccc2c1)NC(=O)[C@H]1CC[C@H](CNC(=O)CN2CCN(CC(=O)O)CCN(CC(=O)O)CCN(CC(=O)O)CC2)CC1)C(=O)O)C(=O)O [PSMA-617, hooc-Lys(-2Nal-Tran-DOTA)-'CO'-Glu-cooh]
pIC50 (PSMA [1]): 7.68

Molecule: CC(=O)N[C@@H](CS)C(=O)NCCCCCC(=O)NCCCCCC(=O)N[C@H](CCCCN)C(=O)NCCCCCC(=O)NCCCC[C@H](NC(=O)N[C@@H](CCC(=O)O)C(=O)O)C(=O)O [Prototype PSMAi, hooc-Lys(-Ahx-dLys(-nh2)-(Ahx)2-Cys-Ac)-'CO'-Glu-cooh]
pIC50 (PSMA [1]): 8.35

Molecule: O=C([O-])CN1CCN(CC(=O)[O-])CCN(CC(=O)NCC2CCC(C(=O)N[C@@H](Cc3ccc4ccccc4c3)C(=O)NCCCC[C@H](NC(=O)N[C@@H](CCC(=O)O)C(=O)O)C(=O)O)CC2)CCN(CC(=O)[O-])CC1.[177Lu+3] (stereo partly shown) [^177Lu-PSMA-617]
clinical response (PSMA [2]): high response rate

Molecule: O=C([O-])CC[C@H](NC(=O)N[C@@H](CCCCNC(=O)[C@H](Cc1ccc2ccccc2c1)NC(=O)[C@H]1CC[C@H](CNC(=O)CN2CCN(CC(=O)[O-])CCN(CC(=O)[O-])CCN(CC(=O)[O-])CC2)CC1)C(=O)[O-])C(=O)[O-].[225Ac].[H+].[H+].[H+] [^225Ac-PSMA-617]
salivary gland toxicity (PSMA [2]; 40 patients): frequent occurrence of severe xerostomia
patients who discontinued treatment due to xerostomia (PSMA [2]; clinical trial): ~23%
clinical response (PSMA [2]): remarkable results

Molecule: Clc1cccc(CN=C2Nc3ccccc3NC23CCNCC3)c1 [liproxstatin-1]
H&E staining of tumor tissue (B16-F10 tumors; after final dose): reversed
effect of i.p. liproxstatin-1 on particle-induced tumor volume drop (B16-F10 tumors; mouse, in vivo, ip): substantially attenuated

pIC50 (MC1-R): 8.15
Molecule: Ac-Cys-(Ahx)2-dLys-Re(CCMSH) [Prototype αMSH]

pIC50 (MC1-R): 7.15
Molecule: Ac-Cys-PEG2-dLys-Ahx-Nle-Re(CCMSH) [2nd gen αMSH (#2)]
